# From ChEMBL document CHEMBL1201862, “PubChem BioAssay data set” (2004)
# The source made the active and inactive calls.
# Tests used:
# [1] = biological target: T1, Tyrosyl-DNA phosphodiesterase 2 (Homo sapiens, UniProt O95551); assay: potency against TDP2 phosphodiesterase activity – biochemical, epi absorbance, IC50, dose response (AID 743297)
# T1 sequence (O95551 whole entry): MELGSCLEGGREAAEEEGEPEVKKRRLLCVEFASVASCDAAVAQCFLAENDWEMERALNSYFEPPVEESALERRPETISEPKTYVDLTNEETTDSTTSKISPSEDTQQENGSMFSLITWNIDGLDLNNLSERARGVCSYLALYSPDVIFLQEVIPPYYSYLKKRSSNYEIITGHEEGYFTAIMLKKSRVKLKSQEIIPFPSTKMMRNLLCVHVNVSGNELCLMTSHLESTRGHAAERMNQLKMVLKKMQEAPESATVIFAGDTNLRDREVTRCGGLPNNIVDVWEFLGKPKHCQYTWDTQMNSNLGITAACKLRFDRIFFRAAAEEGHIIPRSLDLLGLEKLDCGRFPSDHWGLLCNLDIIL
# [2] = NIH-3T3 fibroblast cytotoxicity, dose response, cytotoxicity control, cell-based, fluorescence, Alamar Blue, secondary assay (AID 2327); format: functional;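 note: NIH-3T3 mouse fibroblasts cultured with fluconazole at 8 µg/mL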
# [3] = test system: Streptococcus sp. 'group A'; assay: Streptococcus pyogenes SK(-)GAS viability under kanamycin – luminescence, BacTiterGlo, confirmation, counter-screen for streptokinase expression inhibitor project, dose response (AID 1900); format: functional, organism-based
# [4] = cells; format: functional, cell-based
# [5] = test system: BJ; assay: cells; format: functional, cell-based; conditions: Homo sapiens
# [6] = fluconazole-exposed Candida albicans growth modulators – fluorescence, retest, confirmation (AID 2467); format: functional, cell-based
# [7] = biological target: T2, Serine/threonine-protein phosphatase (Candida dubliniensis (strain CD36 / CBS 7987 / NCPF 3949 / NRRLY-17841) (Yeast), UniProt B9W6M3); assay: blockers of CaCl2-induced CDRE-lacZ signaling – S. cerevisiae, luminescence, secondary, dose response (AID 2388); format: functional, cell-based;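 note: yeast reporter cells carrying a calcineurin-responsive lacZ construct stimulated with calcium chloride; luminescent beta-galactosidase reporter signal in whole cells rather than isolated phosphatase activity; potency for inhibition where a drop in reporter signal means calcineurin blockade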
# T2 sequence (B9W6M3 whole entry): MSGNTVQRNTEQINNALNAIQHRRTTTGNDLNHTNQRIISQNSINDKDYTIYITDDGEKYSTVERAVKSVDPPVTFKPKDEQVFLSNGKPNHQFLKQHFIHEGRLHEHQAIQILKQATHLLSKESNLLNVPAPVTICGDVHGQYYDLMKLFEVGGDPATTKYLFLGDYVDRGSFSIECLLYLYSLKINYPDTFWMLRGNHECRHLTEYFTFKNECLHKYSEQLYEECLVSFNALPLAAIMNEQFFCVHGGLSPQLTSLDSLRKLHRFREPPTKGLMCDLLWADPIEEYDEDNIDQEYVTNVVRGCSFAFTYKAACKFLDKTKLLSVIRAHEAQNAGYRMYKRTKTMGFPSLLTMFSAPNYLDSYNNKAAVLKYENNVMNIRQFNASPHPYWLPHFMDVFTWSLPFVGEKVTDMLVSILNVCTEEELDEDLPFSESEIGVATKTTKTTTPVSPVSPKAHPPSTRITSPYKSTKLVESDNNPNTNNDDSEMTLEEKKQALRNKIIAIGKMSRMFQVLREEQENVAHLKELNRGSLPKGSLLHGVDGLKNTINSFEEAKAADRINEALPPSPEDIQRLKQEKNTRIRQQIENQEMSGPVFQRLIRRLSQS
# [8] = test system: Streptococcus; assay: GAS UMAA2166 growth inhibition – luminescence, BacTiterGlo, counter-screen for streptokinase expression inhibitor project, dose response (AID 1915); format: functional, organism-based;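 note: potency for reduction of bacterial viability or growth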
# [9] = test system: Vero; assay: cells; format: functional; conditions: Chlorocebus sabaeus
# [10] = biological target: Paired box protein Pax-8 (Homo sapiens, UniProt Q06710); assay: PAX8 transcriptional activity inhibition in RMG-I – RMG-I cells, luciferase, cherry-pick, dose response (AID 687027); format: functional, cell-based;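 note: luciferase reporter driven by Pax8 target thyroperoxidase promoter measured by SteadyGlo luminescence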
# Chain of Paired box protein Pax-8 (Q06710 whole entry): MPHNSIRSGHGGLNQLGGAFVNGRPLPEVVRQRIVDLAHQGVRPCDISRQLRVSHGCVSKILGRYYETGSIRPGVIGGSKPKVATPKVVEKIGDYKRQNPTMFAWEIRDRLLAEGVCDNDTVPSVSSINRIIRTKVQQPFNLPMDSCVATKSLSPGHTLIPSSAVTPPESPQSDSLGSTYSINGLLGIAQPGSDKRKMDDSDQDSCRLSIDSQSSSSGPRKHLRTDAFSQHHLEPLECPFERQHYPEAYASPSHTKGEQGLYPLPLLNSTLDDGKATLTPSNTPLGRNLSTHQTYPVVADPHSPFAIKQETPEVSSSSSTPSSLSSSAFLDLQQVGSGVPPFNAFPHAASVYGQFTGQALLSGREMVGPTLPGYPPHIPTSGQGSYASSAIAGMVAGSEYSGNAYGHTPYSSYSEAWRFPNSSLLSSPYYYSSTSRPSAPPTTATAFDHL
# [11] = biological target: Endoribonuclease toxin MazF (Escherichia coli K-12, UniProt P0AE70); assay: activation of MazEF endoribonuclease cleavage – biochemical, fluorescence, single-stranded RNA substrate, uHTS hits, dose response (AID 588481); format: functional
# Chain of Endoribonuclease toxin MazF (P0AE70 whole entry): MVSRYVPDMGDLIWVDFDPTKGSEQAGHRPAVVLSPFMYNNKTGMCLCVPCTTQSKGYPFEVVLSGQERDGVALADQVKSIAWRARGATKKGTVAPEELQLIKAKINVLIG
# [12] = biological target: Heat shock protein HSP 90-alpha (Homo sapiens, UniProt P07900); format: functional, organism-based
# [13] = biological target: T3, RNA-binding protein pos-1 (Caenorhabditis elegans, UniProt G5EF15); assay: disruptors of C. elegans POS-1 RNA interaction – biochemical, fluorescence polarization, dose response (AID 1964);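 note: purified POS-1 fused to maltose binding protein made in E. coli; potency of compounds blocking POS-1 binding to fluorescent RNA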
# T3 sequence (G5EF15 whole entry): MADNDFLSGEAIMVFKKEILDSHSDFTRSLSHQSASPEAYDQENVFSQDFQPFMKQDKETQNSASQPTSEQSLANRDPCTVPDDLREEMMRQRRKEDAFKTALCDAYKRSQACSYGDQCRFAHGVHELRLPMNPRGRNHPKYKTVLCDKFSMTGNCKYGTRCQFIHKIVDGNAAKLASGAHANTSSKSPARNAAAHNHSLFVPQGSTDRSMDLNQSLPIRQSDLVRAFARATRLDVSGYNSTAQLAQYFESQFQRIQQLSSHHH
# [14] = biological target: T4, Zinc finger protein mex-5 (Caenorhabditis elegans, UniProt Q9XUB2); assay: potency of MEX-5 RNA-binding blockers – biochemical, C. elegans, fluorescence polarization, dose response (AID 1960)
# T4 sequence (Q9XUB2 whole entry): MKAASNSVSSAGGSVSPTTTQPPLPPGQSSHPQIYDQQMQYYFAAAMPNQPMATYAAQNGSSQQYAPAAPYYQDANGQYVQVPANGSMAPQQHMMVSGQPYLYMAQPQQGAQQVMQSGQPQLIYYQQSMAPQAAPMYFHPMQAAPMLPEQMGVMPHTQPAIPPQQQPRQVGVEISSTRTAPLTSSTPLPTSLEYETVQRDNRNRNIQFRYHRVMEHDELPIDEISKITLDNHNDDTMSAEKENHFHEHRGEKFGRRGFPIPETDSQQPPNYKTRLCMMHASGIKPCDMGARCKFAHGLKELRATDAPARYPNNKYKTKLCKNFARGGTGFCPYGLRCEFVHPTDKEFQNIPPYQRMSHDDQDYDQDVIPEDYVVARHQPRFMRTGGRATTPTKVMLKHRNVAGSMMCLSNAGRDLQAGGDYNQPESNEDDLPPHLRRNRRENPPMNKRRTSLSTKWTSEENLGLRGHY
# [15] = biological target: Glucose-6-phosphate 1-dehydrogenase (Homo sapiens, UniProt P11413); assay: inhibition of Homo sapiens G6PD, dose series – biochemical, fluorescence, selectivity assay for P. falciparum G6PD inhibitor project, dose response (AID 504792); format: functional
# [16] = biological target: Transitional endoplasmic reticulum ATPase (Homo sapiens, UniProt P55072, C522A); assay: C522A mutant p97 ATPase inhibitors, dose response, counter-screen for p97 inhibitor project, biochemical, luminescence (AID 1544)
# Chain of Transitional endoplasmic reticulum ATPase (Homo sapiens, UniProt P55072, C522A) (P55072 2-806 C522A limits assumed): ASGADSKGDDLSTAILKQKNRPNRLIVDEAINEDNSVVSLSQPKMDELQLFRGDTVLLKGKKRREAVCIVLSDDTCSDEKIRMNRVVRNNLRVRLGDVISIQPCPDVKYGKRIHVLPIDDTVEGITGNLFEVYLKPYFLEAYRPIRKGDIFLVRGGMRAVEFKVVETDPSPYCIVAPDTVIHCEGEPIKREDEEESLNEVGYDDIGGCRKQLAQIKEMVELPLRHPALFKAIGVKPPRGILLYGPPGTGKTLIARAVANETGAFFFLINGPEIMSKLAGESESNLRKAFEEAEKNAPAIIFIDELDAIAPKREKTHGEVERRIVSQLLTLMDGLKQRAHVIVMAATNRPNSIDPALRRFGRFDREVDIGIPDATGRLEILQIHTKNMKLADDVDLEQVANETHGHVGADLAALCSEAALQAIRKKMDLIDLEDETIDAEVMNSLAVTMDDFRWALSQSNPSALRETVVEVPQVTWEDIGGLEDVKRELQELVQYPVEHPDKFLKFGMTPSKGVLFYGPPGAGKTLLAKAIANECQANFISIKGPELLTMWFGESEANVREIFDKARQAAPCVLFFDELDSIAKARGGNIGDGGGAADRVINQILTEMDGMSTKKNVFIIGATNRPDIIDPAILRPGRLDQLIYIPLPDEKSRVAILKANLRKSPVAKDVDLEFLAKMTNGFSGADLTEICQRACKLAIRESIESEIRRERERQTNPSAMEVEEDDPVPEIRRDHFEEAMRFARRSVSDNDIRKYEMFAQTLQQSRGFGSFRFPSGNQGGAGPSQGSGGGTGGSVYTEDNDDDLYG
# [17] = biological target: Transitional endoplasmic reticulum ATPase (Homo sapiens, UniProt P55072); assay: p97 ATPase inhibitors, dose response, biochemical (AID 1534)
# Chain of Transitional endoplasmic reticulum ATPase (Homo sapiens, UniProt P55072) (P55072 whole entry): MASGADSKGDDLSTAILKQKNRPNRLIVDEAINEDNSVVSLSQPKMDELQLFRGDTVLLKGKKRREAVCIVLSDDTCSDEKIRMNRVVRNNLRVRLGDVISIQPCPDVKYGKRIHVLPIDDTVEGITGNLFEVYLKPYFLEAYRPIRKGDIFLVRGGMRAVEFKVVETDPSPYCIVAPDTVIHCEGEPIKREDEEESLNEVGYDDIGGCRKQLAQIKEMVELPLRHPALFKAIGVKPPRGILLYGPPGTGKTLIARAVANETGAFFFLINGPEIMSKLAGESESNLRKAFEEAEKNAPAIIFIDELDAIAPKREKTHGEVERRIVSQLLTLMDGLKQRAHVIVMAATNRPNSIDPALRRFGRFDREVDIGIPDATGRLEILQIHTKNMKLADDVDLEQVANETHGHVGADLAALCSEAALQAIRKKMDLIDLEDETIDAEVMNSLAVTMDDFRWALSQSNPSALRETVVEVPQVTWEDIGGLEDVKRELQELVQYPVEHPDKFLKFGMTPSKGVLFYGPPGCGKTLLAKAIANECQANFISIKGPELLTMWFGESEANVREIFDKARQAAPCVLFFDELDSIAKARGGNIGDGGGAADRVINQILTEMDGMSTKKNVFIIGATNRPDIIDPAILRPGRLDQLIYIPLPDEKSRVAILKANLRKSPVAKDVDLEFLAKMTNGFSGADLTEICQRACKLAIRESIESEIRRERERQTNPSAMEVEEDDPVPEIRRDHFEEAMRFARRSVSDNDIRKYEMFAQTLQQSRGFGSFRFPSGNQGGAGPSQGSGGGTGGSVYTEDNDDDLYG
# [18] = biological target: Fatty acid synthase (Homo sapiens, UniProt P49327); assay: inhibition of human FAS-TE enzyme activity – biochemical, endpoint fluorescence intensity, uHTS hits, dose response (AID 624327); format: functional;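 note: fluorescence from hydrolysis of an O-methyl fluorescein acyl ester substrate by the enzyme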
# Chain of Fatty acid synthase (P49327 whole entry): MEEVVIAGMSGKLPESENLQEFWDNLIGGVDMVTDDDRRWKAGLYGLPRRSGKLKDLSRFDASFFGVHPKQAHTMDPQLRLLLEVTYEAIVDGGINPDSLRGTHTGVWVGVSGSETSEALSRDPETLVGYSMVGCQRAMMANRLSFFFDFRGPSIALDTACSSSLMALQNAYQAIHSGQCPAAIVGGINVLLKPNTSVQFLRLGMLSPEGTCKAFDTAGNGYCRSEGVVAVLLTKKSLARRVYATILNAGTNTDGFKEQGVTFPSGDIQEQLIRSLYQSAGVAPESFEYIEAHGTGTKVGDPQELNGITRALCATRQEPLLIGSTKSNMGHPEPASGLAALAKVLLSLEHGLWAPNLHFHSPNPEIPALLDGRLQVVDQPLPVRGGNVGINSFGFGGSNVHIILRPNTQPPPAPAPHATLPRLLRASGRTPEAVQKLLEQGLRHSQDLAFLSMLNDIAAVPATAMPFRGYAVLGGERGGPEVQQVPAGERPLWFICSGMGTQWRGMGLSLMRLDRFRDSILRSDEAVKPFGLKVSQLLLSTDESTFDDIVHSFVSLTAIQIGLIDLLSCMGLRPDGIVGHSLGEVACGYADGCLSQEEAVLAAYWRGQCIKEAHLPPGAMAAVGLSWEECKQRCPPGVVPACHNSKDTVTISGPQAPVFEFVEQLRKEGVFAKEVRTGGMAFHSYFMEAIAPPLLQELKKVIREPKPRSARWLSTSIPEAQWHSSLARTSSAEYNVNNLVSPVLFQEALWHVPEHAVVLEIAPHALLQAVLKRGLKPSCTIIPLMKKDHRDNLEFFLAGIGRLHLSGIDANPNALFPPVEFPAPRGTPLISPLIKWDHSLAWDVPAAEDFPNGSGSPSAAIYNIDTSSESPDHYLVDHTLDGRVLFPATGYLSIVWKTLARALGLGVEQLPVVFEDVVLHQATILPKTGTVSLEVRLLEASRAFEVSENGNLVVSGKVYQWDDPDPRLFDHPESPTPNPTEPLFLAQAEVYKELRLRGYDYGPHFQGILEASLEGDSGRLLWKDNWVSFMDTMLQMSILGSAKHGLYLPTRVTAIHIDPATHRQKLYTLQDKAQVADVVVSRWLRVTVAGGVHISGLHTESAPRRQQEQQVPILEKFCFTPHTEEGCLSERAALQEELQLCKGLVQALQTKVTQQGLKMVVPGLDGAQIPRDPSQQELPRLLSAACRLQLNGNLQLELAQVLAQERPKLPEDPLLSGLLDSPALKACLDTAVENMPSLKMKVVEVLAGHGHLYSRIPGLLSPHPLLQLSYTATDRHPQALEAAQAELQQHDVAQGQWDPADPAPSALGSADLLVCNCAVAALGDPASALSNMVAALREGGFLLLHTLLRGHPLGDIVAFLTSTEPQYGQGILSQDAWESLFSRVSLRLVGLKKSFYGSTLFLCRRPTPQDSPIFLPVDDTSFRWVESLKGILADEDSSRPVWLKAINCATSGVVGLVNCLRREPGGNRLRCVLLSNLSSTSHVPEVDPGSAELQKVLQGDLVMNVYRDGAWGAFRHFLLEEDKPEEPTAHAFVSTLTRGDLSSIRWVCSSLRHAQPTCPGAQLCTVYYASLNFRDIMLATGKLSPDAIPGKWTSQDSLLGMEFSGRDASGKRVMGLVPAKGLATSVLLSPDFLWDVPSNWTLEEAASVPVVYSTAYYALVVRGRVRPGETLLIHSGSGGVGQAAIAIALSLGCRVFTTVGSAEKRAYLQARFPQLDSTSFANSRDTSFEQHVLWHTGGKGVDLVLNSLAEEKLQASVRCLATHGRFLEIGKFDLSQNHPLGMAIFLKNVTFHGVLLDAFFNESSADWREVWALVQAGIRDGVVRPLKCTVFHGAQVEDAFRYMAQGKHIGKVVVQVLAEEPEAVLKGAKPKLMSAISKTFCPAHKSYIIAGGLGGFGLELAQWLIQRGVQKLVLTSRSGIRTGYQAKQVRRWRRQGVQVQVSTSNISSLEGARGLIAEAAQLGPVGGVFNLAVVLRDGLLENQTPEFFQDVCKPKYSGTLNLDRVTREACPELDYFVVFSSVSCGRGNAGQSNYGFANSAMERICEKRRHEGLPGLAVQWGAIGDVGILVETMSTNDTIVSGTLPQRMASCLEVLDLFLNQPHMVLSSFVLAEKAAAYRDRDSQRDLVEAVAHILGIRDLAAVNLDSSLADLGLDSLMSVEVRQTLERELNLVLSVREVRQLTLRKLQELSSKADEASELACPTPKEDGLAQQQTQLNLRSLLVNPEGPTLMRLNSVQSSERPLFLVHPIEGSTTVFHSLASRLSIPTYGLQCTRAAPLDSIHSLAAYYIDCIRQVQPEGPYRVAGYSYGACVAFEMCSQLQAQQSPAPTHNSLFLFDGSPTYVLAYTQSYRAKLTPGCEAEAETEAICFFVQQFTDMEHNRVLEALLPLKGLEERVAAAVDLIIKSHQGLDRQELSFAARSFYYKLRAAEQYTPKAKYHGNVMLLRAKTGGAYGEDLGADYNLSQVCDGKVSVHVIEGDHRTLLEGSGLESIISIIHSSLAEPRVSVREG
Structure (SMILES),IC50 [1],EC50 [2],EC50 [3],EC50 [6],EC50 [8],AC50 [10],AC50 [12],EC50 [13],EC50 [14],IC50 [16],IC50 [17],also measured
CC1(C)Cc2ccccc2C2=NNC(=O)C2=N1,22.9 µM (inactive),–,–,–,–,–,–,–,–,–,–,–
CCCC(=O)NC(c1ccc(C(C)C)cc1)c1ccc2cccnc2c1O (centres undefined),–,22.1 µM (inconclusive),2.55 µM (active),0.621 µM (active),6.95 µM (active),1.21 µM (active),–,–,–,–,–,EC50 [4]: 3.8 µM (active); EC50 [5]: 2.91 µM (active); EC50 [7]: > 180 µM (inactive); CC50 [9]: 2.88 µM (active)
O=[N+]([O-])c1ccc(Sc2cccc[n+]2[O-])c2nonc12,–,–,–,–,–,–,3.91 µM (active),–,–,–,–,EC50 [11]: > 99 µM (inactive)
CCc1ccc(S(=O)(=O)Nc2cc(SCC(=O)O)c(O)c3ccccc23)cc1,85.9 µM (inactive),–,–,–,–,–,–,35.5 µM (active),11.5 µM (active),–,–,IC50 [15]: 50 µM (inactive)
Oc1c(Cl)cc(Cl)c(Cl)c1Cc1c(O)c(Cl)cc(Cl)c1Cl [HEXACHLOROPHENE],–,16.2 µM (active),0.244 µM (active),> 38 µM (not active),0.262 µM (active),3.3 µM (active),0.77 µM (active),45.4 µM (inconclusive),19.1 µM (inconclusive),> 50 µM (not active),5.49 µM (active),IC50 [18]: 7.79 µM (active)
N#Cc1c(N2CCCCC2)nc(N)c2c(N)nc(SCC(=O)O)cc12,–,–,–,–,–,–,–,–,–,> 50 µM (not active),> 50 µM (not active),–
